Experiment [1] concerns the target T1, TxA2 Synthase (Rattus norvegicus, UniProt P49430).
T1 construct: TxB2 generated in whole blood during clotting; from tissue; host or cells: rat whole blood, clotting (RRM rats)
T1 sequence (P49430 1-533): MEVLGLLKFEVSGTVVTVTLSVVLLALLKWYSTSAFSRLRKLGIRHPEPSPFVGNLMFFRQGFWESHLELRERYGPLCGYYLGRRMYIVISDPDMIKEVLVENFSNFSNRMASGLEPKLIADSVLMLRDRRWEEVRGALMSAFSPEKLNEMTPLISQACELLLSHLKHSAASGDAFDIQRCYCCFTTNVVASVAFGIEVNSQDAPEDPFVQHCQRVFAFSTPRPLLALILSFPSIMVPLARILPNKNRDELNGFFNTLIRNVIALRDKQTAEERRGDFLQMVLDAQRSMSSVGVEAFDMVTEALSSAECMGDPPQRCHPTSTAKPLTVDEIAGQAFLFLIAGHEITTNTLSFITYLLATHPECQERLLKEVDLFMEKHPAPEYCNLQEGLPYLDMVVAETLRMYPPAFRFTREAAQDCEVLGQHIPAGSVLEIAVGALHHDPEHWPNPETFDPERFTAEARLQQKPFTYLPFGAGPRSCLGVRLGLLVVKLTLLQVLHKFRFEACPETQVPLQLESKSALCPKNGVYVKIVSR
The experiment in a line: TxA2 Synthase activity in vitro: TxB2 generated in whole blood during clotting (RRM rats). The following applies: for inhibitory activity on TxA2 synthesis (in words): in vitro, RRM rat whole blood / glomeruli; for pIC50: whole blood of RRM rats, clotting 1 h at 37° C., n = 8, limits for p = 0.95, read-out: In vitro effects on T × B2 production, IC50, Whole Blood. It is filed as cell-based. How it is done:
(§1) The compounds of formula (I) were for example tested for their ability to inhibit TxA2 Synthase activity (as reflected by TxB2 generated in whole blood during clotting or in isolated glomeruli) in vitro in the rat.
(§2) The in vitro experiments were carried out as follows: The effect of the compounds on TxA2 synthesis was evaluated in serum and in glomeruli isolated from kidney cortex of reduced renal mass rats (RRM). Ablation of >70% of renal mass in the rat results in hypertension, proteinuria and glomerular sclerosis of the remnant kidney. Rats with a remnant kidney have increased excretion of thromboxane in the urine when compared with normal rats (Purkerson et al., Proc. Natl. Acad. Sci. USA 82, 193, 1985).
Blood was withdrawn from the abdominal aorta of the animals under light ether anesthesia.
Samples were then allowed to clot for 1 h at 37° C., centrifuged at 3000 rpm for 10 min, serum collected and stored at -20° C. until assayed. TxB2 levels were determined by RIA according to previously described procedures [Patrono et al.-Thromb. Res. 17, 3/4, 317, 1980] using highly specific antibody.

Experiment [2] concerns the target T1, TxA2 Synthase. The experiment in a line: TxA2 Synthase activity in vitro: TxB2 production in isolated glomeruli (RRM rats). The experiment is classed as cell-based. As to conditions: isolated glomeruli of RRM rats, 1 h at 37° C., n = 6; limits for p = 0.95; read-out: In vitro effects on T × B2 production, IC50, Glomeruli. As to the method:
as §1, §2
The isolated glomeruli of 4 rats were pooled, suspended in modified Krebs buffer (pH 7.3) and divided into portions of 1 ml each containing a concentration of the test compounds or of the reference compounds.

The target of experiment [3] is T1, TxA2 Synthase. The following applies: no test data given; cited from earlier work.
Experiment [4] addresses T2, TxA2 receptor (washed human platelets) (Homo sapiens, UniProt P21731).
T2 construct: endogenous in cells; host or cells: washed platelets of healthy human volunteers
T2 sequence (P21731 1-343): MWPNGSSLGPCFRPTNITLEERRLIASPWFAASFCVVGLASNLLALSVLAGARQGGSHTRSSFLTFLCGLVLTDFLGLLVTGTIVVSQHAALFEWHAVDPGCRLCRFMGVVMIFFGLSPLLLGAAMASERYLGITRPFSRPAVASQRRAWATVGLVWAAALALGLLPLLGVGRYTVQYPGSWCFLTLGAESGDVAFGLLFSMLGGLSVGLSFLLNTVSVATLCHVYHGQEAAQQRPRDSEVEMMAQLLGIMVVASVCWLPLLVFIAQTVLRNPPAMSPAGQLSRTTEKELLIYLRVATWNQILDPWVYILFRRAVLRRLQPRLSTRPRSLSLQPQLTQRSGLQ
In words: TxA2 antagonism, [^3H]-SQ 29,548 binding displacement in washed human platelets. As to the method: Moreover the compounds of the invention were tested for TxA2 antagonism in a binding assay in washed human platelets, using as radiolabelled ligand [^3 H]-SQ 29,548.
The experiments were carried out as follows: Blood from healthy volunteers of both sexes who had no taken any medication for at least 10 days is collected into one-tenth volume of acid citrate dextrose containing indomethacin (28 μM). Platelet rich plasma (PRP), obtained by centrifugation of the blood at 200×g for 20 min, is washed twice (1000×g for 10 min). The platelets are then resuspended in Tyrode-Hepes buffer (pH 7.4) to a final concentration of […] and incubated for 0-60 min at 25° with [^3 H]-SQ 29,548 (5 nM). For displacement experiments various concentrations (10^-9 -10^-4 M) of competing ligands were added and incubated for 30 min at 25° C.
After the incubation, 4 ml of ice-cold TRIS-HCL buffer (10 mM, pH 7.4) was added to each tube and the reaction mixture was immediately filtered by suction through a Whatman […] glass filter disc which was washed 2 times with ice-cold TRIS-HCl (4 ml) and counted for radioactivity by a Packard-β-counter.

The values below come from US5280033A, “Substituted 1-(alkoxy-iminoalkyl) imidazole derivatives and their use in treating disease related to an enhancement of thromboxane-A2 syntheis” (Farmitalia Carlo Erba S RL, priority 1990, dated 1994).

Molecules are shown by their SMILES. pIC50: −log10 of the molar value. Entries after “also recorded” stand apart in the source; their conditions may differ.

On to `O=C(O)CCCCO/N=C(\Cn1ccnc1)C1CCCCC1` [FCE 26398, (Z)-5-[1-cyclohexyl-2-(imidazol-1-yl)-ethylidene]aminoxypentanoic acid], for which, on TxA2 Synthase [1], the “inhibitory activity on TxA2 synthesis (in words)” value is “marked inhibitory activity on TxA2 synthesis significantly more potent than that of reference compounds Dazoxiben and ASA”; the pIC50 was 7.72. Besides, the pIC50 at TxA2 Synthase [2] was 7.44.

On to `O=C(O)CCCCO/N=C(/c1ccccc1)C(Cc1ccccc1)n1ccnc1` (racemic) [FCE 27108, (±) (Z)-5-[1-phenyl-2-(imidazol-1-yl)-2-benzylethylidene]aminoxypentanoic acid], for which, on TxA2 Synthase [1], the “inhibitory activity on TxA2 synthesis (in words)” value is “marked inhibitory activity on TxA2 synthesis significantly more potent than that of reference compounds Dazoxiben and ASA”; the pIC50 is 7.64.

Regarding `CC(=O)Oc1ccccc1C(=O)O` [ASA, Acetylsalicylic acid, reference compound], the pIC50 at TxA2 Synthase [1] is 4.38.

Take `O=C(O)COc1ccc(CCNS(=O)(=O)c2ccccc2)cc1` [BM 13177, Sulotroban]: the “TxA2 synthase inhibitory activity of known compound (in words)” value on TxA2 Synthase [3] was “devoid of TxA2 synthase inhibitory activity”.

Turning to `O=C(O)CCCCO/N=C(\c1ccccc1)C(Cc1ccccc1)n1ccnc1` (racemic) [FCE 27109, (±) (E)-5-[1-phenyl-2-(imidazol-1-yl)-2-benzylethylidene]aminoxypentanoic acid], the “inhibitory activity on TxA2 synthesis (in words)” value on TxA2 Synthase [1] is “marked inhibitory activity on TxA2 synthesis significantly more potent than that of reference compounds Dazoxiben and ASA; also recorded: active as TxA2 synthase inhibitor”. The negative logarithm of the IC50 (pIC50) at TxA2 Synthase [1] was 7.32; in experiment [4] ([^3H]-SQ 29,548 5 nM, 30 min at 25° C.) it was 6.72. Besides, the “affinity for the receptor (in words)” value in experiment [4] ([^3H]-SQ 29,548 binding) is on record as “good affinity for the receptor better than that showed by the known compound Sulotroban (BM 13177)”.

Broadly, the pIC50 is −log10 of the IC50, conventionally taken in molar units.
